Measured values from the NIST ThermoML archive (doi:10.1021/je060271a).
± gives the expanded uncertainty stated by the source.

Settings: 283.15 K, Liquid, Vibrating tube method

CCCCC(=O)OCC(COC(=O)CCCC)(COC(=O)CCCC)COC(=O)CCCC [pentaerythritol tetrapentanoate]
Settings	mass density [kg/m3]
5629.7 kPa	1030.4 ± 1.2
5659.1 kPa	1030.3 ± 1.2
5688.1 kPa	1030.4 ± 1.2
5723.9 kPa	1030.4 ± 1.2
5754.6 kPa	1030.5 ± 1.2
5779.1 kPa	1030.6 ± 1.2
5803 kPa	1030.5 ± 1.2
5832 kPa	1030.5 ± 1.2
5856.1 kPa	1030.5 ± 1.2
5881 kPa	1030.5 ± 1.2
5906.4 kPa	1030.5 ± 1.2
5936.8 kPa	1030.5 ± 1.2
5961.9 kPa	1030.6 ± 1.2
5987.7 kPa	1030.6 ± 1.2
6018.4 kPa	1030.5 ± 1.2
6044.4 kPa	1030.6 ± 1.2
6070.3 kPa	1030.6 ± 1.2
6097.3 kPa	1030.6 ± 1.2
6128.9 kPa	1030.6 ± 1.2
6155.9 kPa	1030.8 ± 1.2
6188.9 kPa	1030.7 ± 1.2
6217.1 kPa	1030.7 ± 1.2
6245.2 kPa	1030.6 ± 1.2
6273.6 kPa	1030.7 ± 1.2
6301.9 kPa	1030.7 ± 1.2
6336.3 kPa	1030.8 ± 1.2
6365.5 kPa	1030.8 ± 1.2
6395.6 kPa	1030.8 ± 1.2
6431.7 kPa	1030.9 ± 1.2
6462.7 kPa	1030.8 ± 1.2
6491.7 kPa	1030.9 ± 1.2
6519.4 kPa	1030.9 ± 1.2
6542.3 kPa	1030.9 ± 1.2
6565.5 kPa	1031 ± 1.2
6593.5 kPa	1031.1 ± 1.2
6616.8 kPa	1031 ± 1.2
6640.3 kPa	1031 ± 1.2
6668.5 kPa	1031 ± 1.2
6692.7 kPa	1031 ± 1.2
6717.5 kPa	1031.1 ± 1.2
6741.9 kPa	1031 ± 1.2
6771.1 kPa	1031.1 ± 1.2
6796.3 kPa	1031.1 ± 1.2
6820.7 kPa	1031 ± 1.2
6850.6 kPa	1031 ± 1.2
6876.8 kPa	1031.1 ± 1.2
6902.9 kPa	1031.1 ± 1.2
6929.7 kPa	1031.2 ± 1.2
6961.3 kPa	1031.2 ± 1.2
6989.3 kPa	1031.2 ± 1.2
7017.1 kPa	1031.2 ± 1.2
7043.5 kPa	1031.2 ± 1.2
7061.5 kPa	1031.2 ± 1.2
7079.3 kPa	1031.1 ± 1.2
7097.4 kPa	1031.2 ± 1.2
7118.7 kPa	1031.2 ± 1.2
7234.2 kPa	1031.4 ± 1.2
7256.3 kPa	1031.3 ± 1.2
7276 kPa	1031.3 ± 1.2
7295 kPa	1031.3 ± 1.2
7315.5 kPa	1031.4 ± 1.2
7334.8 kPa	1031.4 ± 1.2
7354.5 kPa	1031.4 ± 1.2
7377.5 kPa	1031.5 ± 1.2
7396.8 kPa	1031.4 ± 1.2
7420.6 kPa	1031.4 ± 1.2
7440.5 kPa	1031.5 ± 1.2
7460.5 kPa	1031.4 ± 1.2
7480.2 kPa	1031.4 ± 1.2
7504.4 kPa	1031.5 ± 1.2
7525.1 kPa	1031.4 ± 1.2
7592.3 kPa	1031.6 ± 1.2
7634.1 kPa	1031.5 ± 1.2
7655.5 kPa	1031.6 ± 1.2
7680.7 kPa	1031.4 ± 1.2
7702.1 kPa	1031.7 ± 1.2
7723.5 kPa	1031.5 ± 1.2
7745.1 kPa	1031.6 ± 1.2
7771 kPa	1031.6 ± 1.2
7792.7 kPa	1031.7 ± 1.2
7814.7 kPa	1031.6 ± 1.2
7836.8 kPa	1031.7 ± 1.2
7863.9 kPa	1031.6 ± 1.2
7886.1 kPa	1031.7 ± 1.2
7909.2 kPa	1031.7 ± 1.2
8005.6 kPa	1031.7 ± 1.2
8079.8 kPa	1031.9 ± 1.2
8132.6 kPa	1031.8 ± 1.2
8156.2 kPa	1031.8 ± 1.2
8209.7 kPa	1031.8 ± 1.2
8234 kPa	1031.8 ± 1.2
8258.7 kPa	1031.9 ± 1.2
8283.5 kPa	1031.9 ± 1.2
8312.9 kPa	1031.9 ± 1.2
8337.9 kPa	1031.8 ± 1.2
8363.2 kPa	1031.9 ± 1.2
8393.6 kPa	1032 ± 1.2
8418.8 kPa	1032.2 ± 1.2
8444.3 kPa	1031.9 ± 1.2
8474.7 kPa	1032 ± 1.2
8501.2 kPa	1032.1 ± 1.2
8527.8 kPa	1032 ± 1.2
8554.5 kPa	1032 ± 1.2
8586.3 kPa	1032.1 ± 1.2
8612.5 kPa	1032 ± 1.2
8644.9 kPa	1032.2 ± 1.2
8671.8 kPa	1032.2 ± 1.2
8698.7 kPa	1032.2 ± 1.2
8726 kPa	1032.1 ± 1.2
8759.1 kPa	1032 ± 1.2
8787 kPa	1032.2 ± 1.2
8815 kPa	1032.2 ± 1.2
8848.6 kPa	1032.3 ± 1.2
8877 kPa	1032.2 ± 1.2
8906.3 kPa	1032.3 ± 1.2
8934.4 kPa	1032.3 ± 1.2
8969.3 kPa	1032.3 ± 1.2
8998.4 kPa	1032.4 ± 1.2
9027.7 kPa	1032.3 ± 1.2
9092.4 kPa	1032.4 ± 1.2
9158.9 kPa	1032.3 ± 1.2
9189.8 kPa	1032.4 ± 1.2
9220.8 kPa	1032.6 ± 1.2
9257.3 kPa	1032.5 ± 1.2
9288.4 kPa	1032.5 ± 1.2
9320.3 kPa	1032.4 ± 1.2
9599.3 kPa	1032.6 ± 1.2
9632.7 kPa	1032.7 ± 1.2
9666.3 kPa	1032.8 ± 1.2
9707.5 kPa	1032.7 ± 1.2
9743 kPa	1032.7 ± 1.2
9779.3 kPa	1032.7 ± 1.2
9813.6 kPa	1032.9 ± 1.2
9848.6 kPa	1032.9 ± 1.2
9891.1 kPa	1032.8 ± 1.2
9926.8 kPa	1032.8 ± 1.2
9963 kPa	1032.8 ± 1.2
10006 kPa	1032.8 ± 1.2
10044 kPa	1032.9 ± 1.2
10125 kPa	1032.9 ± 1.2
10200 kPa	1033.1 ± 1.2
10248 kPa	1033 ± 1.2
10286 kPa	1033 ± 1.2
10324 kPa	1033.1 ± 1.2
10363 kPa	1033 ± 1.2
10410 kPa	1033.1 ± 1.2
10449 kPa	1033.2 ± 1.2
10489 kPa	1033.1 ± 1.2
10537 kPa	1033.2 ± 1.2
10577 kPa	1033.2 ± 1.2
10619 kPa	1033.3 ± 1.2
10668 kPa	1033.3 ± 1.2
10710 kPa	1033.4 ± 1.2
10753 kPa	1033.3 ± 1.2
10805 kPa	1033.3 ± 1.2
10848 kPa	1033.4 ± 1.2
10894 kPa	1033.3 ± 1.2
10948 kPa	1033.3 ± 1.2
10990 kPa	1033.4 ± 1.2
11025 kPa	1033.4 ± 1.2
